Results as given in article PMC8001472, “Novel Selective IDO1 Inhibitors with Isoxazolo[5,4-d]pyrimidin-4(5H)-one Scaffold” (Pharmaceuticals, 2021).

Experiments:
[1] = molecular target: T1, hIDO2 (Homo sapiens, UniProt Q6ZQW0); assay: hIDO2 inhibitory potency evaluation (fluorescence assay); type: biochemical; conditions: for inhibition at 100 µM: 100 µM compound, n.a. = not active, read-out: IDO2 % of Inhibition @ 100 µM
T1 construct: purchased Vinci-Biochem
T1 sequence (Q6ZQW0 1-407): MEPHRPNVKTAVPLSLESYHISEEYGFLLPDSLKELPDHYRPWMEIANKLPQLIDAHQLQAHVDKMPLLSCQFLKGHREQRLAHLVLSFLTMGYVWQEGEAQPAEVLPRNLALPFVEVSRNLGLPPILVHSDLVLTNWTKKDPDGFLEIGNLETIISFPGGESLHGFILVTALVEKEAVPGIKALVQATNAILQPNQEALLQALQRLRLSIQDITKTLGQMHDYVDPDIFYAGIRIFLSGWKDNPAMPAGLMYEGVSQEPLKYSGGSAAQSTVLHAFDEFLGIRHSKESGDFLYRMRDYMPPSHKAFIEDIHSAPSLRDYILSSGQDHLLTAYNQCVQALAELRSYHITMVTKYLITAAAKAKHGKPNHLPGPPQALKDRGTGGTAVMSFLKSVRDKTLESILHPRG
Protocol: (§1) Additionally, to determine IDO1 selectivity, all final compounds were assayed for their inhibitory potencies towards hIDO2 and hTDO. For this purpose, two new protocols were developed based on the published fluorescence assay for hIDO1 [25]. Sodium ascorbate, methylene blue, and bovine catalase were used in the same concentrations as for hIDO1. 50 mM phosphate buffers with pH values of 7.5 and 7.0 were used for hIDO2 and hTDO, respectively, as has been already mentioned before. First, the activities of hIDO2 and hTDO were determined at four different concentrations. […] Additionally, the effect of DMSO concentration on enzyme activity was investigated. […] The optimal hIDO2 and hTDO assay concentrations of the substrate L-Trp were determined to be 4 mM and 500 μM, respectively.
Activity of the compounds on hIDO2 was determined according to the previously reported fluorescence protocol for hIDO1 [25] and reported absorbance protocols for hIDO2 [30, 36] with several modifications. Recombinant hIDO2 was purchased from Vinci-Biochem (Vinci-Biochem, Srl, Vinci, Italy), bovine catalase was purchased from Sigma-Aldrich (Sigma-Aldrich, St. Louis, MO, USA). Prior to the measurement of activity for compounds, the enzyme activity was determined and optimal assay enzyme concentration was selected. The amounts of reagents needed to perform the assay were optimized. Briefly, the reagents needed were dissolved in 50 mM potassium phosphate buffer (pH 7.5, 0.01%, v/v Tween 20), the reaction was performed in black 384-well microplates. After the addition of 1 μL of 100 mM sodium ascorbate neutralized with an equimolar amount of 1M NaOH, 1 μL of 100 μM methylene blue, 1 μL of 1 mg/mL bovine catalase, 0.5 μL of DMSO (negative control) or solution of a compound in DMSO, 5 μL of […] hIDO2 and 1.5 μL of 26.7 mM L-Trp were added and the microplate was incubated for 60 min at 37 °C. The reaction was quenched with the addition of 10 μL of 400 mM piperidine solution in MilliQ water and the formation of the examined fluorophore began following incubation at 65 °C for 20 min. The production of NFK-derived fluorophore (λEX = 400 nm, λEM = 500 nm) was measured using a microplate reader (Synergy H4; BioTek Instruments, Inc., Winooski, VT, USA) after 60 min post-incubation at room temperature. In the preliminary testing compounds were tested at 100 μM with activities determined as residual activities—RA, which were calculated to% of inhibition, presented in Table 1 and Table 2. (% of inhibition = 100% − RA). All determinations were carried out in duplicates.

[2] = molecular target: IDO1 (Homo sapiens, UniProt P14902); assay: hIDO1 inhibitory potency evaluation (fluorescence assay, NFK-derived fluorophore); type: biochemical; parameters: gene encoding human IDO1 residues 6-403 His-tagged at the N-terminus; His tag (N); made in house; host or cells: Escherichia coli NiCo21; conditions: for IC50: recombinant hIDO1, mean ± SD of at least two independent determinations, read-out: IDO1 IC50; for inhibition at 100 µM: 100 µM compound, n.a. = not active, read-out: IDO1 % of Inhibition @ 100 µM
[3] = molecular target: T2, hTDO (Homo sapiens, UniProt P48775); assay: hTDO inhibitory potency evaluation (fluorescence assay); type: biochemical; conditions: for inhibition at 100 µM: 100 µM compound, n.a. = not active, read-out: TDO % of Inhibition @ 100 µM
T2 construct: purchased Vinci-Biochem
Protocol: as §1
The activity of the compounds on hTDO was determined according to the previously reported fluorescence protocol for hIDO1 [25] and reported absorbance protocols for hTDO [30] with several modifications. Recombinant hTDO was purchased from Vinci-Biochem (Vinci-Biochem, Vinci, Italy), bovine catalase was purchased from Sigma-Aldrich (Sigma-Aldrich, St. Louis, MO, USA). Prior to the measurement of activity for compounds, the enzyme activity was determined, and optimal assay enzyme concentration was selected. The amounts of reagents needed to perform the assay were optimized. Briefly, the reagents needed were dissolved in 50 mM potassium phosphate buffer (pH 7.0, 0.01%, v/v Tween 20), the reaction was performed in black 384-well microplates. After the addition of 1 μL of 100 mM sodium ascorbate neutralized with equimolar amount of 1 M NaOH, 1 μL of 100 μM methylene blue, 1 μL of 1 mg/mL bovine catalase, 0.5 μL of DMSO (negative control) or solution of a compound, 5 μL of 300 nM hTDO and 1.5 μL of 3.3 mM L-Trp were added and the microplate was incubated for 60 min at 37 °C. The reaction was quenched with the addition of 10 μL of 400 mM piperidine solution in MilliQ water and the formation of the examined fluorophore began following incubation at 65 °C for 20 min. The production of NFK-derived fluorophore (λEX = 400 nm, λEM = 500 nm) was measured using a microplate reader (Synergy H4; BioTek Instruments, Inc., Winooski, VT, USA) after 60 min post-incubation at room temperature. In the preliminary testing compounds were tested at 100 μM with activities determined as residual activities—RA, which were calculated to% of inhibition, presented in Table 1 and Table 2 (% of inhibition = 100% − RA). All determinations were carried out in duplicates.

T2 sequence (P48775 whole entry): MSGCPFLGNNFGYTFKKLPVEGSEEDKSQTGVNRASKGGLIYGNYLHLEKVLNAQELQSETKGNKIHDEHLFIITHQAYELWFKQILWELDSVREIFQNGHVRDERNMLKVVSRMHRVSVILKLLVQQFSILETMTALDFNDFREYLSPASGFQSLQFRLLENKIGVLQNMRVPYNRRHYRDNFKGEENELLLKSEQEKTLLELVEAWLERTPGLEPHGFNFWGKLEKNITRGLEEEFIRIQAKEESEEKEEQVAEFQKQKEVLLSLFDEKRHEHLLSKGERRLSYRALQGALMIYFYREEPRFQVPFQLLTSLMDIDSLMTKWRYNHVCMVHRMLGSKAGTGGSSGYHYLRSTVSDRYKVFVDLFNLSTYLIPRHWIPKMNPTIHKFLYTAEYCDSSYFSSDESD
Chain of IDO1 (P14902 6-403): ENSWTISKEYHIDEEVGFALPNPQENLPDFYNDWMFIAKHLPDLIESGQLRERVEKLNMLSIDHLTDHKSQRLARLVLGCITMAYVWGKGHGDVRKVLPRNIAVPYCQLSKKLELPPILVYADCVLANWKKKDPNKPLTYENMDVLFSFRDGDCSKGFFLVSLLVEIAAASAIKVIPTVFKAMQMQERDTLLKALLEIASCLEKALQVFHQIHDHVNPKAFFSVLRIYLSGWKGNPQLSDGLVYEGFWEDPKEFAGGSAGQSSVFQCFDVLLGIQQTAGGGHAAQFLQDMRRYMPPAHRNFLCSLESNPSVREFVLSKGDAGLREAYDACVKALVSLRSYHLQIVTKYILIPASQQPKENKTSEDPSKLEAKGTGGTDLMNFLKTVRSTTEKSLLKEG

Row | SMILES | melting point | IC50 [2] | inhibition at 100 µM [2] | further results
1 | O=C(Cn1cnc2onc(-c3ccsc3)c2c1=O)Nc1ccc([N+](=O)[O-])cc1 [Compound 53] | 231 to 233 °C | 40 µM | – | inhibition at 100 µM [1]: 21 ± 6%
2 | O=C(Cn1cnc2onc(-c3ccc(F)cc3)c2c1=O)N1CCCc2ccccc21 [Compound 12] | – | 50 µM | – | –
3 | O=C(Cn1cnc2onc(-c3ccc(F)cc3)c2c1=O)Nc1ccccc1 [Compound 16] | 203 to 205 °C | – | 15 ± 4% | inhibition at 100 µM [1]: 28 ± 9%; hIDO1 inhibition (in words) [2]: only weak inhibition
4 | CC(C)c1ccc(NC(=O)Cn2cnc3onc(-c4ccc(F)cc4)c3c2=O)cc1 [Compound 31] | 198 to 202 °C | 87 µM | – | –
5 | COc1cc(NC(=O)Cn2cnc3onc(-c4ccc(F)cc4)c3c2=O)cc(OC)c1OC [Compound 34] | 219 to 221 °C | – | – | hIDO1 inhibition (in words) [2]: inactive
6 | O=C(Cn1cnc2onc(-c3cccs3)c2c1=O)Nc1ccc([N+](=O)[O-])cc1 [Compound 51] | – | 53 µM | – | –
7 | CS(=O)(=O)c1ccc(NC(=O)Cn2cnc3onc(-c4ccc(F)cc4)c3c2=O)cc1 [Compound 26] | 234 to 238 °C | – | 11 ± 2% | hIDO1 inhibition (in words) [2]: inactive
8 | O=C(Cn1cnc2onc(-c3ccc(OCc4ccccc4)cc3)c2c1=O)N1CCCc2ccccc21 [Compound 46] | 200 to 202 °C | – | 14 ± 3% | –
9 | O=C(Cn1cnc2onc(-c3ccc(F)cc3)c2c1=O)Nc1ccc(-c2ncco2)cc1 [Compound 29] | 237 to 239 °C | 30 µM | – | inhibition at 100 µM [3]: 29 ± 3%
10 | COC(=O)c1cccc(NC(=O)Cn2cnc3onc(-c4ccc(F)cc4)c3c2=O)c1 [Compound 19] | – | 55 µM | – | –
11 | O=C(Cn1cnc2onc(-c3ccc(F)cc3)c2c1=O)Nc1cccc2ccccc12 [Compound 35] | 210 to 215 °C | – | 20 ± 6% | –
12 | O=C(Cn1cnc2onc(-c3ccccc3)c2c1=O)Nc1ccc([N+](=O)[O-])cc1 [Compound 40] | 197 to 199 °C | – | – | inhibition at 100 µM [1]: 16 ± 5%
13 | CN(C)c1ccc(NC(=O)Cn2cnc3onc(-c4ccc(F)cc4)c3c2=O)cc1 [Compound 28] | – | – | 31 ± 3% | inhibition at 100 µM [3]: 18 ± 4%; hIDO1 inhibition (in words) [2]: weak inhibition
14 | O=C(Cn1cnc2onc(-c3ccc(F)cc3)c2c1=O)Nc1ccc(-c2nn[nH]n2)cc1 [Compound 30] | – | – | – | inhibition at 100 µM [3]: 17 ± 2%; hIDO1 inhibition (in words) [2]: inactive
15 | O=C(Cn1cnc2onc(-c3ccccc3)c2c1=O)N1CCCc2ccccc21 [Compound 38] | – | – | – | inhibition at 100 µM [1]: 16 ± 4%
16 | O=C(Cn1cnc2onc(-c3ccc(F)cc3)c2c1=O)N1CCCCC1 [Compound 14] | 174 to 176 °C | – | 27 ± 4% | –
17 | CN(C)C(=O)Cn1cnc2onc(-c3ccc(F)cc3)c2c1=O [Compound 13] | 215 to 217 °C | – | 21 ± 5% | –

Row | SMILES | melting point | IC50 [2] | inhibition at 100 µM [2] | further results
18 | O=C(Cn1cnc2onc(-c3ccc(F)cc3)c2c1=O)NC12CC3CC(CC(C3)C1)C2 [Compound 15] | 204 to 205 °C | 88 µM | – | –
19 | O=C(Cn1cnc2onc(-c3ccc(F)cc3)c2c1=O)Nc1ccc(F)cc1 [Compound 17] | 206 to 209 °C | – | 33 ± 2% | hIDO1 inhibition (in words) [2]: only weak inhibition
20 | O=C(Cn1cnc2onc(-c3ccc(F)cc3)c2c1=O)Nc1ccc(C2CCCCC2)cc1 [Compound 32] | – | 22 µM | – | hIDO1 inhibition (in words) [2]: low micromolar range
21 | O=C(Cn1cnc2onc(-c3ccc(Br)cc3)c2c1=O)N1CCCc2ccccc21 [Compound 41] | – | – | 32 ± 1% | –
22 | O=C(Cn1cnc2onc(-c3ccc(F)cc3)c2c1=O)Nc1ccc2ccccc2c1 [Compound 36] | 180 to 184 °C | 46 µM | – | inhibition at 100 µM [1]: 13 ± 2%
23 | COC(=O)c1ccc(CNC(=O)Cn2cnc3onc(-c4ccc(F)cc4)c3c2=O)cc1 [Compound 21] | 165 to 167 °C | – | 27 ± 3% | –
24 | O=C(Cn1cnc2onc(-c3ccc(F)cc3)c2c1=O)Nc1cccc(C(F)(F)F)c1 [Compound 22] | 195 to 200 °C | 55 µM | – | –
25 | O=C(Cn1cnc2onc(-c3ccc(F)cc3)c2c1=O)N1CCc2ccccc2C1 [Compound 37] | 201 to 203 °C | – | 17 ± 5% | –
26 | O=C(Cn1cnc2onc(-c3cccs3)c2c1=O)N1CCCc2ccccc21 [Compound 50] | 202 to 205 °C | – | – | –
27 | COc1ccc(-c2noc3ncn(CC(=O)N4CCCc5ccccc54)c(=O)c23)cc1 [Compound 42] | 171 to 178 °C | – | 15 ± 4% | –
28 | COC(=O)c1ccc(NC(=O)Cn2cnc3onc(-c4ccc(F)cc4)c3c2=O)cc1 [Compound 20] | 234 to 236 °C | 27 µM | – | hIDO1 inhibition (in words) [2]: low micromolar range
29 | NS(=O)(=O)NCCNc1nonc1C(=NO)Nc1ccc(F)c(Br)c1 [epacadostat, reference compound] | – | – | – | IC50 ([1]; positive control, assay validation, read-out: IDO2 IC50): 0.58 µM; IC50 [3]: 9.62 µM
30 | O=C(Cn1cnc2onc(-c3ccc(F)c(F)c3)c2c1=O)Nc1ccc([N+](=O)[O-])cc1 [Compound 48] | – | 75 µM | – | inhibition at 100 µM [3]: 10 ± 6%
31 | N#Cc1ccc(NC(=O)Cn2cnc3onc(-c4ccc(F)cc4)c3c2=O)cc1 [Compound 27] | > 250 °C | – | 11 ± 4% | inhibition at 100 µM [3]: 17 ± 2%; hIDO1 inhibition (in words) [2]: inactive
32 | O=C(Cn1cnc2onc(-c3ccsc3)c2c1=O)N1CCCc2ccccc21 [Compound 52] | – | – | 23 ± 5% | –
33 | COC(=O)c1ccccc1NC(=O)Cn1cnc2onc(-c3ccc(F)cc3)c2c1=O [Compound 18] | 212 to 214 °C | – | 32 ± 4% | inhibition at 100 µM [1]: 15 ± 1%
34 | O=C(Cn1cnc2onc(-c3ccc(F)c(F)c3)c2c1=O)N1CCCc2ccccc21 [Compound 47] | – | – | 34 ± 1% | –
